In patent publication US11524975B2, “Amphiphilic compound having dendronic hydrophobic group and application thereof” (Industry-University Cooperation Foundation Hanyang …, priority 2017, dated 2022):
Where two headings read alike, the source gives them in different places.

What was measured:
[1] = Critical micelle concentration by hydrophobic fluorescence staining with diphenylhexatriene (DPH); assay type: physicochemical
Experimental: A method of measuring CMC is not particularly limited, and may be a method widely known in the art, for example, fluorescent staining using diphenylhexatriene (DPH).
(§1) To identify the properties of DTMs synthesized according to the synthetic methods of Examples 1 and 2, the molecular weights (M.W.) and critical micellar concentrations (CMCs) of DTMs, and hydrodynamic radii (Rh) of formed micelles were measured.
(§2) Specifically, the CMCs were measured using hydrophobic fluorescence staining and diphenylhexatriene (DPH), and the hydrodynamic radii (Rh) of the micelles formed by each formulation were measured by dynamic light scattering (DLS).

[2] = Hydrodynamic radius of micelles by dynamic light scattering (DLS); assay type: physicochemical; conditions: 0.5 wt % detergent concentration
Experimental: A method of measuring the radius of a micelle is not particularly limited, but may be a method well known in the art, for example, dynamic light scattering (DLS).
as §1, §2

[3] = biological target: T1, MelBSt (melibiose permease) (Salmonella typhimurium, UniProt P30878); conditions: 1.5 wt % detergent, 90 minutes
T1 construct: made in house; host or cells: E. coli DW2 (ΔmelB, ΔlacZY), plasmid pK95ΔAHB/WT MelBSt/CH10
Experimental: Specifically, Salmonella typhimurium MelBSt (melibiose permease) having a 10-His tag at the C-terminus was expressed in E. coli DW2 cells (ΔmelB and ΔlacZY) using a pK95ΔAHB/WT MelBSt/CH10 plasmid. Cell growth and membrane preparation were carried out according to the methods disclosed in the paper written by A. S. Ethayathulla et al. (Nat. Commun. 2014, 5, 3009). A protein assay was performed using a Micro BCA kit (Thermo Scientific, Rockford, Ill.). MelBSt stability in DTMs or DDM was evaluated using the protocol disclosed in Nat. Methods 2010, 7, 1003-1008, written by P. S. Chae et al. A MelBSt-containing membrane sample (the final protein concentration was 10 mg/mL) was incubated in a solubilization buffer containing 1.5% (w/v) DDM or DTM (20 mM sodium phosphate, pH 7.5, 200 mM NaCl, 10% glycerol and 20 mM melibiose) at four different temperatures (0, 45, 55 and 65° C.) for 90 minutes. To remove an insoluble material, ultracentrifugation was performed using a Beckman Optima™ MAX ultracentrifuge equipped with a TLA-100 rotor at 355,590 g and 4° C. for 45 minutes. […] The loaded samples were analyzed by SDS-15% PAGE, and then visualized by immunoblotting with a Penta-His-HRP antibody (Qiagen, Germantown, Md.).

[4] = tested on: MelBSt and MelBEc; experiment: Galactoside-binding Trp→D2G FRET assay of detergent-solubilized MelB homologs; assay type: biochemical; conditions: 1.0% detergent, 60 minutes at 23° C., FIG. 8c
Experimental: In addition, RSO vesicles were prepared to be used for Trp→D^2G FRET assay. The RSO membrane vesicles were prepared by osmotic lysis from E. coli DW2 cells containing MelBSt or MelBEc. The RSO membrane vesicles mixed in a buffer (pH 7.5) containing 100 mM KPi and 100 mM NaCl at a protein concentration of 1 mg/ml were treated with 1.0% individual compounds (DDM, DTM-A5 and DTM-A6) for 60 minutes at 23° C., and ultracentrifuged using a TLA 120.2 rotor at 300,000 g or more for 45 minutes at 4° C. Supernatants were applied to a FRET (Trp→D^2G) experiment using an Amico-Bowman Series 2 (AB2) spectrofluorometer. The 2′-(N-dansyl)aminoalkyl-1-thio-β-D-galactopyranoside (D^2G, dansyl-galactoside) was obtained from Drs. Gerard Leblanc and H. Ronald Kaback. D^2G FRET signals of MelBSt and MelBEc were collected at 490 and 465 nm, respectively, upon excitation of Trp residues at 290 nm. 10 μM D^2G and excess melibiose or an equal amount of water (control) was added into an MelB solution at the time points of 1 minute and 2 minutes, respectively.

[5] = biological target: T2, β2AR (Homo sapiens, UniProt P07550); experiment: β2AR stability in detergent, [3H]-dihydroalprenolol (DHA) binding; assay type: biochemical; conditions: CMC+0.2 wt %, 4 days at room temperature, FIG. 9a
T2 construct: made in house; host or cells: Sf9 insect cells, baculovirus
Experimental: A receptor was expressed in Sf9 insect cells infected with a baculovirus and solubilized in 1% DDM. The DDM-solubilized receptor was purified by alprenolol-sepharose in the presence of 0.01% cholesteryl succinate (CHS). β2AR purified by DDM was diluted with a buffer containing DDM or DTM (DTM-A6, DTM-A7 or DTM-E7) to reach the final concentration of CMC+0.2 wt %. β2AR solubilized in each compound was stored for 4 days at room temperature, and the ligand binding ability of the receptor was measured at regular intervals by incubating the receptor with 10 nM radioactive [^3H]-dihydroalprenolol (DHA) for 30 minutes at room temperature. The mixture was loaded into a G-50 column, and a supernatant was collected using a certain amount of binding buffer (supplemented with 20 mM HEPES pH 7.5, 100 mM NaCl, 0.5 mg/ml BSA). In addition, a 15 ml scintillation fluid was added. Receptor-binding [^3H]-DHA was measured using a scintillation counter (Beckman).

[6] = biological target: T3, β2AR-Gs complex (Homo sapiens, UniProt P07550); experiment: Stability of β2AR-Gs complex by analytical gel filtration (SEC); conditions: complex purified in detergent, compound-free running buffer, 3 and 15-day incubation, FIG. 9b
T3 construct: made in house; host or cells: β2AR: Sf9 insect cells
Experimental: 100 μM β2AR solubilized in 0.1% DDM was mixed with 120 μM Gs heterotrimer for 30 minutes at room temperature. 0.5 unit of apyrase (NEB) and 2 mM MgCl2 was added to facilitate complex formation, followed by further incubation for one hour. Subsequently, 1% DTM-A6 was added such that the final concentration reached 0.8%, and the sample was further incubated for 30 minutes to change DDM to DTM-A6. The protein solution was loaded into a M1 Flag column, washed with a series of buffers with different molar ratios of 0.1% DDM buffer to 0.5% DTM-A6 buffer to completely change DDM to DTM-A6, and the protein was finally eluted with 0.05% (70×CMC) DTM-A6 buffer. Preparative gel filtration was performed to purify the β2AR-Gs complex with a running buffer (20 mM HEPES pH 7.5, 100 mM NaCl, 0.005% DTM-A6, 1 mM BI, […]). To measure the stability of the β2AR-Gs complex in DTM-A6, analytical gel filtrations were performed using the running buffer as above, but after 3 and 15-day incubation, performed without DTM-A6 (compound-free condition).

[7] = biological target: T3, β2AR-Gs complex; experiment: Negative stain EM analysis of β2AR-Gs complex; conditions: FIG. 11
Experimental: A β2AR-Gs protein complex was prepared for electron microscopy using a conventional negative staining protocol, and imaged at room temperature using a Tecnai T12 electron microscope operated at 120 kV according to a low-dose procedure. Images were recorded at a magnification of 71,138× and a defocus value of approximately ˜1.1 μm on a Gatan US4000 CCD camera. All images were binned (2×2 pixels) to obtain a pixel size of 4.16 Å at a specimen level. Particles were manually […] using e2boxer (part of the EMAN2 software suite). 2D reference-free alignment and classification of particle projections were performed using ISAC. 124,279 projections of β2AR-Gs were subjected to ISAC producing 131 classes consistent in two-way matching and 10,000 particle projections.

[8] = tested on: T4, LHI-RC complex; experiment: Structural stability of LHI-RC complex in detergent, UV-Vis absorbance at 875 nm; design: species or system R. capsulatus; conditions: 25° C., FIG. 5
T4 construct: His tag (implied only by Ni-NTA / HisSpinTrap purification); made in house; host or cells: R. capsulatus U43 [pUHTM86Bgl] membranes
Experimental: An experiment was conducted to evaluate the stabilization ability of DTMs on LHI-RC. The photosynthetic super assembly consists of a complex of light-harvesting complex I (LHI) and a reaction center (RC). The structural stability of LHI-RC was measured by a method of monitoring the structure of a protein for 20 days using UV-Vis spectroscopy. LHI-RC protein stability according to the concentration of an amphiphilic molecule was investigated using all DTMs of the present invention, and conventional amphiphilic molecules, such as DDM and OG, and the concentrations of an amphiphilic molecule used here were CMC+ 0.04 wt % (FIG. 5a) and CMC+ 0.2 wt % (FIG. 5b).
Specifically, LHI-RC stability was measured using a method disclosed in the paper published in 2008 by the inventors (P. S. Chae et al., ChemBioChem 2008, 9, 1706-1709.). […] A 10 mL aliquot of the solution of the frozen R. capsulatus membrane was homogenized using a glass homogenizer, and incubated with gentle stirring at 32° C. for 30 minutes. The homogenized membrane was treated with 1.0 wt % DDM for 30 minutes at 32° C. […] Protein stability was measured at regular intervals during the incubation by measuring UV-Vis spectra of the samples in the range of 650 to 950 nm. Protein integrity was evaluated by monitoring absorbance (A875) at 875 nm.

[9] = biological target: T3, β2AR-Gs complex; conditions: DDM-purified complex, previous study; cited from earlier work
[10] = biological target: T3, β2AR-Gs complex; conditions: DDM-purified complex, previous study; cited from earlier work; remark: listed apart in the source
[11] = DPH fluorescence staining, aqueous solution

| SMILES | CMC [1, 11] [µM] | CMC (wt %) [1, 11] [wt %] | R2 (nm), detergent hydrodynamic radius [2] [nm] | MelBst solubilization from the membrane ([3]; 55° C.) | maintenance of MelB protein function (galactoside binding) of two homologs [4] | long-term β2AR receptor activity [5] | integrity of β2AR-Gs complex (SEC) [6] | homogeneity of β2AR-Gs complex particles (negative stain EM) [7] | LHI-RC protein stability when concentration increases from CMC+0.04 wt % to CMC+0.2 wt % [8] | CMC [1] [µM] | MelBst solubilization from the membrane ([3]; 0° C. and 45° C.) | MelBst protein extraction efficiency ([3]; 0° C.) | MelBst solubilization from the membrane ([3]; 65° C.) | integrity of β2AR-Gs complex [9] | homogeneity of β2AR-Gs complex particles (negative stain EM) [10] |
| --- | --- | --- | --- | --- | --- | --- | --- | --- | --- | --- | --- | --- | --- | --- | --- |
| CCCCCCC(CCCCCC)COCC(COCC(CCCCCC)CCCCCC)COCC(CO[C@@H]1OC(CO)[C@@H](O[C@H]2OC(CO)[C@@H](O)C(O)C2O)C(O)C1O)(CO[C@@H]1OC(CO)[C@@H](O[C@H]2OC(CO)[C@@H](O)C(O)C2O)C(O)C1O)CO[C@@H]1OC(CO)[C@H](O[C@H]2OC(CO)[C@@H](O)C(O)C2O)C(O)C1O (stereo partly drawn) [DTM-A6] | ~10 | ~0.0015 | 3.7 ± 0.0 | most effectively solubilized | maintain protein function | consistently maintained | continuously maintains its integrity as a complex for 15 days | highly homogeneous | – | – | – | – | – | – | – |
| CCCCCCCCO[C@@H]1O[C@H](CO)[C@@H](O)[C@H](O)[C@H]1O [OG, n-octyl-β-D-glucopyranoside] | – | – | – | – | – | – | – | – | protein stability decreases | – | – | – | – | – | – |
| CCCCCCCCCCCCO[C@@H]1O[C@H](CO)[C@@H](O[C@H]2O[C@H](CO)[C@@H](O)[C@H](O)[C@H]2O)[C@H](O)[C@H]1O [DDM, n-dodecyl-β-D-maltopyranoside] | 170 | 0.0087 | 3.4 ± 0.0 | – | only one of the two homologs | rapid loss of activity over time | – | – | protein stability decreases | 170 | stably solubilized | higher protein extraction efficiency than DTMs | did not occur | significant dissociation between the receptor and Gs protein even after 2 day-incubation | aggregation of particles |
